These are literature values, as cited in patent publication US11945788B2, “Process for preparing pitolisant hydrochloride and solid-state forms thereof” (Nuray Chemicals Private Limited, priority 2021, dated 2024).

With `Cl.Clc1ccc(CCCOCCCN2CCCCC2)cc1` [Pitolisant hydrochloride, 1-{3-[3-(4-chlorophenyl)propoxy]propyl}piperidine hydrochloride], the solubility in cyclohexane entry (solvent: cyclohexane) was “practically insoluble”. In addition, the solubility in ethanol entry (solvent: ethanol) is given as “soluble”. Moreover, the “solubility in methylene chloride” value (solvent: methylene chloride) is “soluble”. In addition, where the note is “solvent: water”, the solubility in water entry is “soluble”.
